Values after ≈ are worked out from the molar mass of the structure shown. Read-outs that look alike come from different tables or passages of the source. Each block holds one compound with its values, some of them ahead of it.
Tests used:
[1] = target: S. aureus topoisomerase IV (Staphylococcus aureus, UniProt P0C1S7+P0C1U9); assay: S. aureus topoisomerase IV decatenation assay; assay type: biochemical
S. aureus RNase J2 = S. aureus RNase J2 activity; assay type: biochemical; details: data not shown
S. aureus RnpA = target: T1, S. aureus RnpA (Staphylococcus aureus, UniProt P0A0H5); assay: S. aureus RnpA activity; assay type: biochemical; details: data not shown
T1 sequence (P0A0H5 1-117): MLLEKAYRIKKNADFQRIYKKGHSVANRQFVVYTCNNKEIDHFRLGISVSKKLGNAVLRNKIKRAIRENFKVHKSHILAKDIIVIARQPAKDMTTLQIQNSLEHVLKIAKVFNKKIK

S. aureus strain UAMS-1 = assay: microbe, parasite or virus in culture; assay type: cell-based, Staphylococcus aureus; details: for MIC: Staphylococcus aureus, UAMS1, 16 h, read-out: S. aureus MIC, strain UAMS-1, planktonic cells, MHB, 37 °C, 16 h; for fold reduction in activity compared to 4g: S. aureus MIC
S. aureus DNA gyrase = S. aureus DNA gyrase (Staphylococcus aureus, UniProt P0A0K8+P20831); assay: S. aureus DNA gyrase supercoiling assay; assay type: biochemical; details: tested at 100 μM, gel (Figure 4B)
[2] = system: methicillin-resistant (MRSA), vancomycin-intermediate (VISA), vancomycin-resistant (VRSA) S. aureus, fluoroquinolone resistant strains; assay type: cell-based, Staphylococcus aureus; details: toward MRSA, VRSA S. aureus and fluoroquinolone resistant strains
[3] = strain UAMS-1, compared to the hit 1a

topoisomerase IV inhibitory activity (in words) ([1]; dose–response gel (Figure 5A)): moderate
effect on activity of S. aureus RNase J2 (S. aureus RNase J2): did not appear to affect the activity
effect on activity of S. aureus RnpA (S. aureus RnpA): did not appear to affect the activity
SMILES: CC(C)(C)c1ccc(C(O)CCCN2CCC(C(O)(c3ccccc3)c3ccccc3)CC2)cc1 (stereo not drawn) [1a, 1-(4-(tert-Butyl)phenyl)-4-(4-(hydroxydiphenylmethyl)piperidin-1-yl)butan-1-ol]

SMILES: COc1ccc(C(O)CCCN2CCC(C(O)(c3ccccc3)c3ccccc3)CC2)cc1 (stereo not drawn) [1h, 1-(4-Methoxyphenyl)-4-(4-(hydroxydiphenylmethyl)piperidin-1-yl)butan-1-ol]
S. aureus antimicrobial activity (in words) (S. aureus strain UAMS-1; [3]): loss of antimicrobial activity

SMILES: COC(=O)c1ccc(C(O)CCCN2CCC(C(O)(c3ccccc3)c3ccccc3)CC2)cc1 (stereo not drawn) [1i, Methyl 4-(1-Hydroxy-4-(4-(hydroxydiphenylmethyl)piperidin-1-yl)butyl)benzoate]
MIC (S. aureus strain UAMS-1): > 256 µg/mL
S. aureus antimicrobial activity (in words) (S. aureus strain UAMS-1; [3]): loss of antimicrobial activity
IC50 [1]: > 333 µM

SMILES: O=C(O)c1ccc(C(O)CCCN2CCC(C(O)(c3ccccc3)c3ccccc3)CC2)cc1 (stereo not drawn) [1m, 4-(1-Hydroxy-4-(4-(hydroxydiphenylmethyl)piperidin-1-yl)butyl)benzoic Acid]
S. aureus antimicrobial activity (in words) (S. aureus strain UAMS-1; [3]): loss of antimicrobial activity

SMILES: COC(=O)C(C)(C)c1ccc(C(O)CCCN2CCC(C(O)(c3ccccc3)c3ccccc3)CC2)cc1 (stereo not drawn) [1o, Methyl 2-(4-(1-Hydroxy-4-(4-(hydroxydiphenylmethyl)piperidin-1-yl)butyl)phenyl)-2-methylpropanoate]
S. aureus antimicrobial activity (in words) (S. aureus strain UAMS-1; [3]): loss of antimicrobial activity

SMILES: CC(C)(C(=O)O)c1ccc(C(O)CCCN2CCC(C(O)(c3ccccc3)c3ccccc3)CC2)cc1 (stereo not drawn) [1p, 2-(4-(1-Hydroxy-4-(4-(hydroxydiphenylmethyl)piperidin-1-yl)butyl)phenyl)-2-methyl propanoic Acid, reference compound]
S. aureus antimicrobial activity (in words) (S. aureus strain UAMS-1): loss of antimicrobial activity

SMILES: CC(C)(C)c1ccc(C(N)CCCN2CCC(C(O)(c3ccccc3)c3ccccc3)CC2)cc1 (stereo not drawn) [2g, (1-(4-Amino-4-(4-(tert-butyl)phenyl)butyl)piperidin-4-yl)diphenylmethanol]
MIC (S. aureus strain UAMS-1): 16 to 32 µg/mL (≈ 34 to 68 µM)
S. aureus antimicrobial activity (in words) (S. aureus strain UAMS-1; [3]): no change in activity

SMILES: CC(C)(C)c1ccc([C@@H](O)CCCN2CCC(C(O)(c3ccccc3)c3ccccc3)CC2)cc1 [2h, (S)-1-(4-(tert-Butyl)phenyl)-4-(4-(hydroxydiphenylmethyl)piperidin-1-yl)butan-1-ol]
S. aureus antimicrobial activity (in words) (S. aureus strain UAMS-1; [3]): no change in activity

SMILES: CC(C)(C)c1ccc([C@H](O)CCCN2CCC(C(O)(c3ccccc3)c3ccccc3)CC2)cc1 [2i, (R)-1-(4-(tert-Butyl)phenyl)-4-(4-(hydroxydiphenylmethyl)piperidin-1-yl)butan-1-ol]
S. aureus antimicrobial activity (in words) (S. aureus strain UAMS-1; [3]): no change in activity

IC50 [1]: > 333 µM
SMILES: OC(c1ccccc1)(c1ccccc1)C1CCN(CCc2ccc(F)cc2)CC1 [3c, (1-(4-Fluorophenethyl)piperidin-4-yl)diphenylmethanol]

SMILES: OC(c1ccccc1)(c1ccccc1)C1CCN(CCc2ccc(Cl)cc2)CC1 [3d, (1-(4-Chlorophenethyl)piperidin-4-yl)diphenylmethanol]
MIC (S. aureus strain UAMS-1): 16 to 32 µg/mL (≈ 39.4 to 78.8 µM)

SMILES: OC(c1ccccc1)(c1ccccc1)C1CCN(CCc2ccc(Br)cc2)CC1 [3e, (1-(4-Bromophenethyl)piperidin-4-yl)diphenylmethanol]
MIC (S. aureus strain UAMS-1): 16 to 32 µg/mL (≈ 35.5 to 71 µM)

IC50 [1]: > 333 µM
SMILES: COc1ccc(CCN2CCC(C(O)(c3ccccc3)c3ccccc3)CC2)cc1 [3g, (1-(4-Methoxyphenethyl)piperidin-4-yl)diphenylmethanol]

IC50 [1]: > 333 µM
SMILES: CC(C)(C)c1ccc(CCN2CCC(C(O)(c3ccccc3)c3ccccc3)CC2)cn1 [3h, (1-(2-(6-(tert-Butyl)pyridin-3-yl)ethyl)piperidin-4-yl)diphenylmethanol]

IC50 [1]: > 333 µM
SMILES: CN(C)c1ccc(CCN2CCC(C(O)(c3ccccc3)c3ccccc3)CC2)cc1 [3k, (1-(4-(Dimethylamino)phenethyl)piperidin-4-yl)diphenylmethanol]

SMILES: OC(c1ccccc1)(c1ccccc1)C1CCN(CCc2ccc(-c3cccnc3)cc2)CC1 [3n, (1-(4-(Pyridin-3-yl)phenethyl)piperidin-4-yl)diphenylmethanol]
MIC (S. aureus strain UAMS-1): 16 to 32 µg/mL (≈ 35.7 to 71.3 µM)

IC50 [1]: > 333 µM
SMILES: CC1(c2ccc(CCN3CCC(C(O)(c4ccccc4)c4ccccc4)CC3)cc2)COC1 [3o, (1-(4-(3-Methyloxetan-3-yl)phenethyl)piperidin-4-yl)diphenylmethanol]

SMILES: OC(c1ccccc1)(c1ccccc1)C1CCN(Cc2ccc(-c3ccsc3)cc2)CC1 [4ff]
fold reduction in activity compared to 4g (S. aureus strain UAMS-1): 4– 8 fold

inhibition of S. aureus DNA gyrase supercoiling activity in comparison to terfenadine (S. aureus DNA gyrase): improved inhibition
SMILES: OC(c1ccccc1)(c1ccccc1)C1CCN(Cc2ccc(-c3ccccc3)cc2)CC1 [4g, (1-([1,1′-Biphenyl]-4-ylmethyl)piperidin-4-yl)diphenylmethanol]

SMILES: OC(c1ccccc1)(c1ccccc1)C1CCN(Cc2ccc(-c3cccs3)cc2)CC1 [4gg, (1-(4-(Thiophen-2-yl)benzyl)piperidin-4-yl)diphenylmethanol]
fold reduction in activity compared to 4g (S. aureus strain UAMS-1): 4– 8 fold

SMILES: OC(c1ccccc1)(c1ccccc1)C1CCN(Cc2ccc(-c3ccoc3)cc2)CC1 [4hh, (1-(4-(Furan-3-yl)benzyl)piperidin-4-yl)diphenylmethanol]
fold reduction in activity compared to 4g (S. aureus strain UAMS-1): 4– 8 fold

SMILES: OC(c1ccccc1)(c1ccccc1)C1CCN(Cc2ccc(-c3ccco3)cc2)CC1 [4ii, (1-(4-(Furan-2-yl)benzyl)piperidin-4-yl)diphenylmethanol]
fold reduction in activity compared to 4g (S. aureus strain UAMS-1): 4– 8 fold

IC50 [1]: > 333 µM
SMILES: CC(C)(C)c1ccc(C(O)CCCN2CCC(C(O)c3ccccc3)CC2)cc1 (stereo not drawn) [5a, 1-(4-(tert-Butyl)phenyl)-4-(4-(hydroxy(phenyl)methyl)piperidin-1-yl)butan-1-ol]

IC50 [1]: > 333 µM
SMILES: CC(C)(C)c1ccc(C(O)CCCN2CCC(Cc3ccccc3)CC2)cc1 (stereo not drawn) [5b, 4-(4-Benzylpiperidin-1-yl)-1-(4-(tert-butyl)phenyl)butan-1-ol]

SMILES: CC(C)(C)c1ccc(C(O)CCCN2CCC(C(c3ccccc3)c3ccccc3)CC2)cc1 (stereo not drawn) [5e, 4-(4-Benzhydrylpiperidin-1-yl)-1-(4-(tert-butyl)phenyl)butan-1-ol]
S. aureus antimicrobial activity (in words) (S. aureus strain UAMS-1; [3]): tolerated

inhibition of S. aureus DNA gyrase supercoiling activity in comparison to terfenadine (S. aureus DNA gyrase): improved inhibition
SMILES: O=C(O)c1cn(C2CC2)c2cc(N3CCNCC3)c(F)cc2c1=O [ciprofloxacin, reference compound]

SMILES: OC(c1ccccc1)(c1ccccc1)C1CCN(CCCOc2ccc(-c3ccccc3)cc2)CC1 [compound 6, (1-(3-([1,1′-Biphenyl]-4-yloxy)propyl)piperidin-4-yl)diphenylmethanol]
inhibition of S. aureus DNA gyrase supercoiling activity in comparison to terfenadine (S. aureus DNA gyrase): improved inhibition
MIC [2]: approximately 2 μg/mL

Source: article PMC4207543 (Journal of Medicinal Chemistry, 2014)
